Molecules are shown by their SMILES.

The data set can be described thus: logP determination by HPLC on reversed-phase column (C 18), EEC Directive 79/831 Annex V.A8. The class given is physicochemical. The settings on record: C 18 reversed-phase, 40° C., 0.1% aqueous formic acid and acetonitrile gradient. The method, then: In the following table, the logP values were determined in accordance with EEC Directive 79/831 Annex V.A8 by HPLC (High Performance Liquid Chromatography) on a reversed-phase column (C 18), using the method described below: Temperature: 40° C.; Mobile phases: 0.1% aqueous formic acid and acetonitrile; linear gradient from 10% acetonitrile to 90% acetonitrile. Calibration was carried out using unbranched alkan-2-ones (comprising 3 to 16 carbon atoms) with known logP values (determination of the logP values by the retention times using linear interpolation between two successive alkanones).

Regarding `CCc1nn(C)c(F)c1C(=O)N(Cc1cn(-c2ccccc2)c2ccccc12)C1CC1` [Compound 29], the LogP came out at 3.89.

(Values after patent publication US8735323B2, “Fungicide N-5-membered fused heteroaryl-methylene-N-cycloalkyl-carboxamide derivatives” (Bayer Cropscience AG, priority 2007, dated 2014).)
